The test system of one assay is Pseudomonas aeruginosa. As to the kind of experiment: microbe, parasite or virus in culture. The note with it: ATCC 27853, 18 h, ASSAY_TEST Inhibition of Bacterial Growth, detection method Absorption (OD600), MEDIA CAMHB, plate type 384well, NBS, CORNING #3640.
The next assay deals with Acinetobacter baumannii. As to the kind of experiment: microbe, parasite or virus in culture. As to conditions: ATCC 19606, 18 h, ASSAY_TEST Inhibition of Bacterial Growth, detection method Absorption (OD600), MEDIA CAMHB, plate type 384well, NBS, CORNING #3640.
A further assay deals with Candida albicans. As to the kind of experiment: microbe, parasite or virus in culture. The note with it: ATCC 90028, ASSAY_TEST Inhibition of Fungal Growth, detection method Absorption (OD530), plate type 384well, NBS, CORNING #3640.
A further assay concerns Staphylococcus aureus. As to the kind of experiment: microbe, parasite or virus in culture. The note with it: ATCC 43300, 18 h, ASSAY_TEST Inhibition of Bacterial Growth, detection method Absorption (OD600), MEDIA CAMHB, plate type 384well, NBS, CORNING #3640.
Another assay has as its system Escherichia coli. Put plainly: microbe, parasite or virus in culture. The note with it: ATCC 25922, 18 h, ASSAY_TEST Inhibition of Bacterial Growth, detection method Absorption (OD600), MEDIA CAMHB, plate type 384well, NBS, CORNING #3640.
The next assay concerns Klebsiella pneumoniae. As to the kind of experiment: microbe, parasite or virus in culture. The note with it: ATCC 700603, 18 h, ASSAY_TEST Inhibition of Bacterial Growth, detection method Absorption (OD600), MEDIA CAMHB, plate type 384well, NBS, CORNING #3640.
The next assay has as its system HEK293. Put plainly: cells. The format is functional. The note with it: Homo sapiens, ATCC CRL1573, HEK293; ASSAY_TEST Inhibition of Cell Viability; detection method Resazurin; Fluorescence (ex560/em590); MEDIA DMEM with 10% FBS; plate type 384well; TC; CORNING #3712; time 18 hr. Background: The colour change of resazurin is a common sign of viable cells or microbes.

Converted amounts (≈) assume the structure as drawn.

Description for Acinetobacter baumannii: Antibacterial activity against Acinetobacter baumannii ATCC 19606 (CO-ADD:GN_034); MIC in CAMBH media using NBS plates, by OD600
Description for Candida albicans: Antifungal activity against Candida albicans ATCC 90028 (CO-ADD:FG_001); MIC in YNB media using NBS plates, by OD630
Description for Cryptococcus neoformans: Antifungal activity against Cryptococcus neoformans H99 ATCC 208821 (CO-ADD:FG_002); MIC in YNB media using NBS plates, by Resazurin OD(600-570)
Description for Escherichia coli: Antibacterial activity against Escherichia coli ATCC 25922 (CO-ADD:GN_001); MIC in CAMBH media using NBS plates, by OD(600)
Description for Klebsiella pneumoniae: Antibacterial activity against Klebsiella pneumoniae MDR ATCC 70063 (CO-ADD:GN_003); MIC in CAMBH media using NBS plates, by OD(600)
Description for Pseudomonas aeruginosa: Antibacterial activity against Pseudomonas aeruginosa ATCC 27853 (CO-ADD:GN_042); MIC in CAMBH media using NBS plates, by OD(600)
Description for Staphylococcus aureus: Antibacterial activity against Staphylococcus aureus MRSA ATCC 43300 (CO-ADD:GP_020); MIC in CAMBH media, using NBS plates, by OD(600)

Broadly, the CC50 is the concentration at which the toxic effect on the cells reaches its halfway point. Lower therefore signals harm at low concentration. Regarding `O=C(CI)NCc1ccccc1`, the MIC against Pseudomonas aeruginosa was more than 32 µg/mL; in the assay on Acinetobacter baumannii, more than 32 µg/mL; in the assay with Candida albicans, more than 32 µg/mL; against Staphylococcus aureus it was more than 32 µg/mL; in the assay on Cryptococcus neoformans, 16 µg/mL (≈ 58.2 µM); with Escherichia coli it was more than 32 µg/mL. Further, the MIC in the assay with Klebsiella pneumoniae is more than 32 µg/mL. Further, in the assay with HEK293, the CC50 stood at 8.25 µg/mL (≈ 30 µM).
Consider `Cc1ccc2nc(Cl)c(/C=N/O)cc2c1`, for which the MIC with Pseudomonas aeruginosa, in the assay with Acinetobacter baumannii, with Candida albicans, against Staphylococcus aureus, against Cryptococcus neoformans and against Escherichia coli was more than 32 µg/mL in each case. This compound returned an MIC in the assay on Klebsiella pneumoniae of more than 32 µg/mL. Moreover, the CC50 with HEK293 is more than 32 µg/mL.
Regarding `Brc1nc(Br)c(Br)[nH]1`, the MIC against Pseudomonas aeruginosa, against Acinetobacter baumannii, in the assay on Candida albicans, with Staphylococcus aureus, in the assay on Cryptococcus neoformans and against Escherichia coli was more than 32 µg/mL in each case. Besides, the MIC against Klebsiella pneumoniae is more than 32 µg/mL. Moreover, the CC50 in the assay with HEK293 was more than 32 µg/mL.
Turning to `CCOC(=O)c1cc2cc(OCCCC3CCN(Cc4ccccc4)CC3)ccc2[nH]1.Cl`, the MIC in the assay with Pseudomonas aeruginosa, against Acinetobacter baumannii, with Candida albicans, against Staphylococcus aureus, in the assay with Cryptococcus neoformans and in the assay with Escherichia coli was more than 32 µg/mL each time. Besides, the MIC against Klebsiella pneumoniae was more than 32 µg/mL. The compound further yielded a CC50 in the assay on HEK293 of 16.5 µg/mL.
With `Cc1ccc2nc(Cl)c(/C=N/Cc3ccccc3)cc2c1`, the MIC with Pseudomonas aeruginosa, against Acinetobacter baumannii, against Candida albicans, in the assay with Staphylococcus aureus, with Cryptococcus neoformans and against Escherichia coli was more than 32 µg/mL in each case. In addition, the MIC with Klebsiella pneumoniae was more than 32 µg/mL. In addition, the CC50 in the assay with HEK293 is more than 32 µg/mL.
As to `CC#CCN(C)Cc1cc2cc(OCc3ccccc3)ccc2[nH]1.O=C(O)C(=O)O`, the MIC in the assay with Pseudomonas aeruginosa, in the assay on Acinetobacter baumannii, against Candida albicans, against Staphylococcus aureus, against Cryptococcus neoformans and in the assay with Escherichia coli was more than 32 µg/mL each time. Also, the MIC in the assay on Klebsiella pneumoniae was more than 32 µg/mL. Further, the CC50 in the assay on HEK293 was more than 32 µg/mL.
Regarding `C#CCNc1nc(NCCCCC2CCN(Cc3ccccc3)CC2)c(C#N)c(-c2ccccc2)c1C#N`, the MIC with Pseudomonas aeruginosa, against Acinetobacter baumannii, in the assay with Candida albicans, against Staphylococcus aureus, against Cryptococcus neoformans and in the assay with Escherichia coli was more than 32 µg/mL in each case. The MIC in the assay with Klebsiella pneumoniae is more than 32 µg/mL. The compound further gave a CC50 with HEK293 of 3.46 µg/mL (≈ 6.88 µM).
As for `Nc1n[nH]c2nc3[nH]nc(N)c3c(-c3ccccc3)c12`, the MIC in the assay with Pseudomonas aeruginosa, with Acinetobacter baumannii, against Candida albicans, in the assay with Staphylococcus aureus, in the assay on Cryptococcus neoformans and against Escherichia coli was more than 32 µg/mL in each case. In the assay with Klebsiella pneumoniae, this compound showed an MIC of more than 32 µg/mL. In the assay on HEK293, this compound came in with a CC50 of 8.23 µg/mL (≈ 31 µM).
On to `N#CC1=C(N)Oc2c(ccc3ccccc23)C1c1ccccc1[N+](=O)[O-]` (stereo not drawn), for which the MIC against Pseudomonas aeruginosa, with Acinetobacter baumannii, against Candida albicans, in the assay on Staphylococcus aureus, in the assay on Cryptococcus neoformans and against Escherichia coli was more than 32 µg/mL in each case. In the assay with Klebsiella pneumoniae, this compound gave an MIC of more than 32 µg/mL. In the assay with HEK293, this compound gave a CC50 of more than 32 µg/mL.
Regarding `Cl.ClCc1ccncc1`, the MIC against Pseudomonas aeruginosa is more than 32 µg/mL; in the assay on Acinetobacter baumannii it was more than 32 µg/mL; in the assay on Candida albicans, 32 µg/mL; with Staphylococcus aureus, more than 32 µg/mL; in the assay on Cryptococcus neoformans, more than 32 µg/mL; in the assay on Escherichia coli it was more than 32 µg/mL. This compound returned an MIC against Klebsiella pneumoniae of more than 32 µg/mL. Besides, the CC50 in the assay on HEK293 was more than 32 µg/mL.
As for `C#CCNc1ccc(Cl)cn1`, the MIC with Pseudomonas aeruginosa, in the assay with Acinetobacter baumannii, against Candida albicans, against Staphylococcus aureus, with Cryptococcus neoformans and against Escherichia coli was more than 32 µg/mL in each case. In addition, in the assay with Klebsiella pneumoniae, the MIC is more than 32 µg/mL. Moreover, the CC50 in the assay on HEK293 was more than 32 µg/mL.
